# Assay results taken from PubChem BioAssay (NCI).
# Where “and” joins values, the source holds several entries; their conditions need not be identical. Equal values may be shown once.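 Step 1: Grow cells in 96-well plates. Step 2: Expose to compound for 48 hours at 5 concentrations. Step 3: Interpolate endpoints linearly; if unreached, use highest concentration. The concentration for 50% growth inhibition is given as GI50. TGI: total growth inhibition.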
# Assays:
# Assay in all cases: DTP human tumour cell line panel, 48 h
# U251 CNS = test system: U251 CNS
# 786-0 renal = test system: 786-0 renal
# SF-268 CNS = test system: SF-268 CNS
# HOP-92 NSCLC = test system: HOP-92 NSCLC
# SF-539 CNS = test system: SF-539 CNS
# HCC-2998 colon = test system: HCC-2998 colon
# PC-3 prostate = test system: PC-3 prostate
# T-47D breast = test system: T-47D breast
# ACHN renal = test system: ACHN renal
# NCI/ADR-RES ovarian = test system: NCI/ADR-RES ovarian
SMILES,GI50 (U251 CNS),TGI (U251 CNS),GI50 (786-0 renal),TGI (786-0 renal),GI50 (SF-268 CNS),TGI (SF-268 CNS),GI50 (HOP-92 NSCLC),TGI (HOP-92 NSCLC),GI50 (SF-539 CNS),TGI (SF-539 CNS),GI50 (HCC-2998 colon),TGI (HCC-2998 colon),GI50 (PC-3 prostate),TGI (PC-3 prostate),GI50 (T-47D breast),TGI (T-47D breast),GI50 (ACHN renal),TGI (ACHN renal),GI50 (NCI/ADR-RES ovarian),TGI (NCI/ADR-RES ovarian)
Cc1ccc2nc3c(n2c1)C(=O)C(=O)c1ccccc1-3,0.176 µM,0.419 µM,0.527 µM,1.15 µM,0.4 µM,4.01 µM,0.71 µM,2.17 µM,0.164 µM,0.326 µM,0.707 µM,2.19 µM,0.59 µM,3.81 µM,0.389 µM,1.74 µM,0.269 µM,0.88 µM,0.348 µM,2.51 µM
O=C(Oc1ccccc1Cl)c1ccccc1Nc1cccc(C(F)(F)F)c1,23.6 µM,58.2 µM,27.2 µM,96.6 µM,20.5 µM,60.6 µM,5.81 µM,38.2 µM,22.1 µM,42.2 µM,12.6 µM,26.7 µM,26 µM,> 100 µM,43.4 µM,> 100 µM,40.3 µM,> 100 µM,19 µM,44.4 µM
COc1cc(-c2nc(-c3ccc(-c4nc5ccc(F)cc5[nH]4)cc3)no2)cc(OC)c1OC,3.03 µM,28.8 µM,3.61 µM,17.9 µM,3.99 µM,32.4 µM,1.76 µM,13.9 µM,3.38 µM,18.7 µM,6.13 µM,40.4 µM,2.33 µM,7.59 µM,2.72 µM,7.46 µM,3.72 µM,13.6 µM,2.49 µM,8.26 µM
COc1ccc(-n2cc(-c3cc(OC)c(OC)c(OC)c3)[nH]c2=S)cc1Cl,20 µM,50.7 µM,23.4 µM,54.5 µM,18.3 µM,50.3 µM,14 µM,33 µM,18.4 µM,48.8 µM,39.7 µM,> 100 µM,54.6 µM,> 100 µM,29 µM,> 100 µM,44.3 µM,> 100 µM,27.5 µM,> 100 µM
O=C(Cn1c(C(=O)c2ccc(Cl)cc2)nc(-c2ccccc2)c1-c1ccccc1)c1ccc(Cl)cc1,> 100 µM,> 100 µM,> 100 µM,> 100 µM,> 100 µM,> 100 µM,23.9 µM,> 100 µM,> 100 µM,> 100 µM,> 100 µM,> 100 µM,> 100 µM,> 100 µM,> 100 µM,> 100 µM,> 100 µM,> 100 µM,> 100 µM,> 100 µM
COc1ccc(C2=N[C@@H](c3ccc(Cl)cc3)[C@@H](c3ccc(Cl)cc3)N2C(=O)N2CCNC(=O)C2)c(OC(C)C)c1,13.7 µM and 14.8 µM and 16.2 µM,27.2 µM and 29.5 µM and 31.6 µM,14.9 µM and 16.6 µM and 17.3 µM,29 µM and 32.6 µM and 34 µM,13.9 µM and 13.1 µM and 14 µM,28 µM and 26.5 µM and 27.9 µM,14.9 µM and 10.7 µM,31.9 µM and 23.9 µM and 24.8 µM,16.5 µM and 17.2 µM and 17.8 µM,32 µM and 32.9 µM and 35.1 µM,14 µM and 15.7 µM and 12.8 µM,27.6 µM and 29.8 µM and 26 µM,11.2 µM and 11.1 µM and 12.3 µM,26.7 µM and 24.9 µM and 28 µM,14.6 µM and 10.5 µM and 15.2 µM,30.4 µM and 27.4 µM and 40.6 µM,14.6 µM and 3.61 µM and 3.8 µM,29.4 µM and 15.1 µM and 16.1 µM,16.9 µM and 16.7 µM and 16.2 µM,35 µM and 37.8 µM and 37.1 µM
COC1C(CO)OC(n2c3c(Cl)cccc3c3c4c(c5c6cccc(Cl)c6[nH]c5c32)C(=O)NC4=O)C(O)C1O (stereo not given),–,5.12 µM,–,2.32 µM,–,> 51.7 µM,–,4.88 µM,–,0.489 µM,–,> 20 µM,–,> 100 µM,–,> 21.1 µM,–,1.47 µM,–,> 100 µM
COc1ccc2c(c1)[nH]c(=O)c1c3cc(OC)c(OC)cc3cn21,< 0.01 µM,1.35 µM,0.0386 µM,15.3 µM,< 0.01 µM,1.45 µM,0.0272 µM,17.4 µM,0.0175 µM,0.0618 µM,< 0.01 µM,0.0768 µM,< 0.01 µM,1.6 µM,15.4 µM,35.6 µM,< 0.01 µM,16.1 µM,< 0.01 µM,< 0.0133 µM
Clc1ccc2nc(Cl)c3ccccc3c2c1,3.21 µM,19.9 µM,9.32 µM,60.8 µM,17.2 µM,> 100 µM,11.9 µM,29.7 µM,12 µM,42 µM,> 100 µM,> 100 µM,> 100 µM,> 100 µM,4.02 µM,> 100 µM,4.04 µM,> 100 µM,17.8 µM,> 100 µM
O=C1CC(c2ccsc2)c2snc(-c3ccc(Cl)cc3)c2N1 (stereo not given),1.75 µM,> 100 µM,7.65 µM,> 100 µM,4.87 µM,> 100 µM,3.87 µM,81.8 µM,2.9 µM,> 100 µM,1.99 µM,> 100 µM,2.05 µM,> 100 µM,0.537 µM,> 100 µM,5.39 µM,> 100 µM,0.364 µM,2.37 µM
Cc1cc(NCc2cc(Nc3ccnc4cc(Cl)ccc34)ccc2F)nc(N2CCSCC2)n1,1.76 µM,3.28 µM,1.6 µM,3.13 µM,1.9 µM,5.27 µM,0.998 µM,2.32 µM,1.79 µM,3.35 µM,1.96 µM,4.04 µM,1.5 µM,4.35 µM,1.97 µM,4.71 µM,1.7 µM,3.53 µM,1.55 µM,4.02 µM
C[C@@H](Oc1cc(-n2cnc3ccc(OCC4CCN(C)CC4)cc32)sc1C(N)=O)c1ccccc1Cl,0.106 µM,3.86 µM,0.315 µM,3.92 µM,0.112 µM,4.07 µM,0.156 µM,2.51 µM,0.107 µM,1.62 µM,0.0815 µM,3.27 µM,0.136 µM,4.42 µM,2.86 µM,6.3 µM,0.368 µM,5.04 µM,0.258 µM,2.4 µM
CCOc1cc2c(=O)oc3c(OC)ccc4ccc(c1OC)c2c43,–,> 100 µM,–,> 100 µM,–,> 100 µM,–,> 100 µM,–,> 100 µM,–,> 100 µM,–,> 100 µM,–,> 100 µM,–,> 100 µM,–,> 100 µM
CNC(=O)c1cc(Oc2ccc3nc(N[C@@H]4CCCC[C@H]4O)sc3c2)ccn1,50.1 µM,> 100 µM,> 90.9 µM,> 100 µM,68 µM,> 100 µM,31.9 µM,> 100 µM,36.3 µM,> 100 µM,> 100 µM,> 100 µM,33.7 µM,> 100 µM,21.1 µM,> 100 µM,55.8 µM,> 100 µM,49.2 µM,> 100 µM
